Like-named read-outs stand apart in the source and are kept apart here.

One test concerns the target Mcl-1 (Homo sapiens (Human), UniProt Q07820). The test is described as follows: Fluorescence polarization anisotropy (FPA) competition assay, FITC-Bak or FITC-Bim BH3 peptide. Type of test: binding. As to conditions: read-out: Ki for Inhibition of Mcl-1 by FPA assay.
Test [1] deals with H929 human cancer cell lines. The test is described as follows: Cellular viability / proliferation (Cell TiterGlo, 72 h). The test is classed as cell-based. The method, boiled down: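 1,000 cells/well, 10% FBS medium; compound added at 24 h, 2-fold dilutions from 50 μM top, DMSO <1% final. 72 h exposure, CellTiterGlo 30 min RT dark, luminescence read. IC50 by 4-parameter fit.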
A general note: ATP-based viability assays read luminescence as a measure of living cells.

Where [2] appears, read: Homo sapiens, NCI-H929, 72 h, read-out: GI50 on cellular proliferation of H929 human cancer cell lines, H929 cells, 72 h, Cell TiterGlo, 10% FBS.

Mcl-1, sequence (Q07820 172-327): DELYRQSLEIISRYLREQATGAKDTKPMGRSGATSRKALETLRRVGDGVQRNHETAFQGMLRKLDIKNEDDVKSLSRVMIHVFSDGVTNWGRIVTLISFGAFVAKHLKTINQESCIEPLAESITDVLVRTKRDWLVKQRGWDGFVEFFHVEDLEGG

With `Cc1cc(OCCCc2c3n(c4c(-c5c(C)nn(C)c5C)c(Cl)ccc24)[C@H](C)CN(c2cccc4cc(C(=O)O)n(CC5CCCO5)c24)C3=O)cc(C)c1Cl` (stereo partly drawn) [Example 326, 7-((R)-7-Chloro-10-(3-(4-chloro-3,5-dimethylphenoxy)propyl)-4-methyl-1-oxo-6-(1,3,5-trimethyl-1H-pyrazol-4-yl)-3,4-dihydropyrazino[1,2-a]indol-2(1H)-yl)-1-((tetrahydrofuran-2-yl)methyl)-1H-indole-2-carboxylic acid], at Mcl-1, the inhibitory constant (Ki) (commonly a dissociation constant, usually derived from enzyme kinetics or from competition with a known ligand) was < 1 nM. Besides, the GI50 in test [1] (setting [2]) turned out to be 590 nM.
Turning to `COc1cc(N2C[C@@H](C)n3c(c(CCCOc4cc(C)c(Cl)c(C)c4)c4ccc(Cl)c(-c5c(C)nn(C)c5C)c43)C2=O)c2cc(C(=O)O)n(C)c2c1` [Example 334, (M, R)-4-(7-Chloro-10-(3-(4-chloro-3,5-dimethylphenoxy)propyl)-4-methyl-1-oxo-6-(1,3,5-trimethyl-1H-pyrazol-4-yl)-3,4-dihydropyrazino[1,2-a]indol-2(1H)-yl)-6-methoxy-1-methyl-1H-indole-2-carboxylic acid], the Ki on Mcl-1 was < 1 nM. Also, the GI50 in test [1] (H929 cells, 72 h, Cell TiterGlo, 10% FBS, read-out: GI50 on cellular proliferation of H929 human cancer cell lines) worked out at 1200 nM.
As for `Cc1cc(OCCCc2c3n(c4c(-c5c(C)nn(C)c5C)c(Cl)ccc24)[C@H](C)CN(c2ccnc4ccc(-c5nn[nH]n5)cc24)C3=O)cc(C)c1Cl` [Example 414, (R)-2-(6-(2H-Tetrazol-5-yl)quinolin-4-yl)-7-chloro-10-(3-(4-chloro-3,5-dimethylphenoxy)propyl)-4-methyl-6-(1,3,5-trimethyl-1H-pyrazol-4-yl)-3,4-dihydropyrazino[1,2-a]indol-1(2H)-one], on Mcl-1, the Ki is < 1 nM. In test [1] (setting [2]), the GI50 was 1400 nM.
With `Cc1cc(OCCCc2c3n(c4c(-c5c(C)nn(C)c5C)c(Cl)ccc24)[C@H](C)CN(c2cn(C)c4ccc(C5=NCCO5)cc24)C3=O)cc(C)c1Cl` [Example 428, (R)-7-Chloro-10-(3-(4-chloro-3,5-dimethylphenoxy)propyl)-2-(5-(4,5-dihydrooxazol-2-yl)-1-methyl-1H-indol-3-yl)-4-methyl-6-(1,3,5-trimethyl-1H-pyrazol-4-yl)-3,4-dihydropyrazino[1,2-a]indol-1(2H)-one], the inhibition constant Ki at Mcl-1 is 2 nM. For the same molecule, the GI50 in test [1] (setting [2]) was 920 nM.
Turning to `Cc1cc(OCCCc2c3n(c4c(-c5c(C)nn(C)c5C)c(Cl)ccc24)[C@H](C)CN(c2cn(C)c4ccc(C(=O)Nc5ccncc5)cc24)C3=O)cc(C)c1Cl` [Example 283, 3-[(4R)-7-chloro-10-[3-(4-chloro-3,5-dimethyl-phenoxy)propyl]-4-methyl-1-oxo-6-(1,3,5-trimethylpyrazol-4-yl)-3,4-dihydropyrazino[1,2-a]indol-2-yl]-1-methyl-N-(4-pyridyl)indole-5-carboxamide], the Ki on Mcl-1 is 1.2 nM. Also, the GI50 in test [1] (setting [2]) was 1200 nM.
As to `Cc1cc(OCCCc2c3n(c4c(-c5c(C)nn(C)c5C)c(Cl)ccc24)[C@H](C)CN(c2cccc4c(C(=O)O)cn(C)c24)C3=O)cc(C)c1Cl` [Example 215, (R)-7-(7-chloro-10-(3-(4-chloro-3,5-dimethylphenoxy)propyl)-4-methyl-1-oxo-6-(1,3,5-trimethyl-1H-pyrazol-4-yl)-3,4-dihydropyrazino[1,2-a]indol-2(1H)-yl)-1-methyl-1H-indole-3-carboxylic acid], at Mcl-1, the Ki is < 1 nM. Moreover, in test [1] (read-out: GI50 on cellular proliferation of H929 human cancer cell lines, H929 cells, 72 h, Cell TiterGlo, 10% FBS), the GI50 is 430 nM.
In the case of `Cc1cc(OCCCc2c3n(c4c(-c5c(C)nn(C)c5C)c(Cl)ccc24)[C@H](C)CN(c2cn(C)c4cc(-c5nnn(C)n5)ccc24)C3=O)cc(C)c1Cl` [Example 370, (R)-7-Chloro-10-(3-(4-chloro-3,5-dimethylphenoxy)propyl)-4-methyl-2-(1-methyl-6-(2-methyl-2H-tetrazol-5-yl)-1H-indol-3-yl)-6-(1,3,5-trimethyl-1H-pyrazol-4-yl)-3,4-dihydropyrazino[1,2-a]indol-1(2H)-one], at Mcl-1, the inhibition constant Ki is 2.8 nM. In test [1] (setting [2]), the GI50 is 4500 nM.
Take `Cc1cc(OCCCc2c3n(c4c(-c5c(C)nn(CC6CCOCC6)c5C)c(Cl)ccc24)[C@H](C)CN(c2cn(C)c4ccc(C(=O)O)cc24)C3=O)cc(C)c1Cl` [Example 262, (R)-3-(7-chloro-10-(3-(4-chloro-3,5-dimethylphenoxy)propyl)-6-(3,5-dimethyl-1-((tetrahydro-2H-pyran-4-yl)methyl)-1H-pyrazol-4-yl)-4-methyl-1-oxo-3,4-dihydropyrazino[1,2-a]indol-2(1H)-yl)-1-methyl-1H-indole-5-carboxylic acid]: at Mcl-1, the Ki was < 1 nM. Moreover, the GI50 in test [1] (setting [2]) is 450 nM.
The like results for `Cc1cc(OCCCc2c3n(c4c(-c5c(C)nn(C)c5C)c(Cl)ccc24)[C@H](C)CN(c2cc(C(=O)O)c4cnn(CCN5CCOCC5)c4c2)C3=O)cc(C)c1Cl` [Example 56, (R)-6-(7-chloro-10-(3-(4-chloro-3,5-dimethylphenoxy)propyl)-4-methyl-1-oxo-6-(1,3,5-trimethyl-1H-pyrazol-4-yl)-3,4-dihydropyrazino[1,2-a]indol-2(1H)-yl)-1-(2-morpholinoethyl)-1H-indazole-4-carboxylic acid] were, in that order, < 1 nM and 810 nM.
Take `Cc1cc(OCCCc2c3n(c4c(-c5c(C)nn(C)c5C)c(Cl)ccc24)[C@H](C)CN(c2cn(C)c4ccc(C(=O)NO)cc24)C3=O)cc(C)c1Cl` [Example 361, (R)-3-(7-Chloro-10-(3-(4-chloro-3,5-dimethylphenoxy)propyl)-4-methyl-1-oxo-6-(1,3,5-trimethyl-1H-pyrazol-4-yl)-3,4-dihydropyrazino[1,2-a]indol-2(1H)-yl)-N-hydroxy-1-methyl-1H-indole-5-carboxamide]: the Ki on Mcl-1 is 2 nM. In addition, the GI50 in test [1] (setting [2]) amounted to 290 nM.
For `Cc1cc(OCCCc2c3n(c4c(-c5c(C)nn(C)c5C)c(Cl)ccc24)[C@H](C)CN(c2cn(C)c4cc(-c5nn[nH]n5)ccc24)C3=O)cc(C)c1Cl` [Example 236, (R)-7-chloro-10-(3-(4-chloro-3,5-dimethylphenoxy)propyl)-4-methyl-2-(1-methyl-6-(2H-tetrazol-5-yl)-1H-indol-3-yl)-6-(1,3,5-trimethyl-1H-pyrazol-4-yl)-3,4-dihydropyrazino[1,2-a]indol-1(2H)-one], the inhibition constant Ki on Mcl-1 is < 1 nM. The GI50 in test [1] (setting [2]) turned out to be 1100 nM.
On to `Cc1cc(OCCCc2c3n(c4c(-c5c(C)nn(C)c5C)c(Cl)ccc24)[C@H](C)CN(c2ccnc4ccc(C(=O)O)cc24)C3=O)cc(C)c1Cl` [Example 172, (R)-4-(7-Chloro-10-(3-(4-chloro-3,5-dimethylphenoxy)propyl)-4-methyl-1-oxo-6-(1,3,5-trimethyl-1H-pyrazol-4-yl)-3,4-dihydropyrazino[1,2-a]indol-2(1H)-yl)quinoline-6-carboxylic acid], for which the inhibition constant Ki on Mcl-1 is < 1 nM. The GI50 in test [1] (setting [2]) is 320 nM.
As for `Cc1cc(OCCCc2c3n(c4c(-c5c(C)nn(C)c5C)c(Cl)ccc24)[C@H](C)CN(c2cn(C)c4c(-c5nnn(C)n5)cccc24)C3=O)cc(C)c1Cl` [Example 362, (R)-7-Chloro-10-(3-(4-chloro-3,5-dimethylphenoxy)propyl)-4-methyl-2-(1-methyl-7-(2-methyl-2H-tetrazol-5-yl)-1H-indol-3-yl)-6-(1,3,5-trimethyl-1H-pyrazol-4-yl)-3,4-dihydropyrazino[1,2-a]indol-1(2H)-one], the Ki on Mcl-1 was determined as 1.7 nM. Moreover, the GI50 in test [1] (setting [2]) came out at 970 nM.
Turning to `Cc1cc(OCCCc2c3n(c4c(-c5c(C)nn(C)c5C)c(Cl)ccc24)[C@H](C)CN(c2cc(C(=O)O)c4c(cnn4C)c2)C3=O)cc(C)c1Cl` [Example 98, (R)-5-(7-chloro-10-(3-(4-chloro-3,5-dimethylphenoxy)propyl)-4-methyl-1-oxo-6-(1,3,5-trimethyl-1H-pyrazol-4-yl)-3,4-dihydropyrazino[1,2-a]indol-2(1H)-yl)-1-methyl-1H-indazole-7-carboxylic acid], the inhibitory constant (Ki) at Mcl-1 is < 1 nM. Also, in test [1] (setting [2]), the GI50 was 6600 nM.
The like results for `Cc1cc(OCCCc2c3n(c4c(-c5c(C)nn(C)c5C)c(Cl)ccc24)[C@H](C)CN(c2cccc4cc(C(=O)O)n(CCN(C)C)c24)C3=O)cc(C)c1Cl` [Example 322, (R)-7-(7-Chloro-10-(3-(4-chloro-3,5-dimethylphenoxy)propyl)-4-methyl-1-oxo-6-(1,3,5-trimethyl-1H-pyrazol-4-yl)-3,4-dihydropyrazino[1,2-a]indol-2(1H)-yl)-1-(2-(dimethylamino)ethyl)-1H-indole-2-carboxylic acid] were, in that order, 1.7 nM and 1800 nM.
The like results for `Cc1cc(OCCCc2c3n(c4c(-c5c(C)nn(C)c5C)c(Cl)ccc24)[C@H](C)CN(c2cc(Cl)cc4cc(C(=O)O)oc24)C3=O)cc(C)c1Cl` [Example 232, (R)-5Chloro-7-(7-chloro-10-(3-(4-chloro-3,5-dimethylphenoxy)propyl)-4-methyl-1-oxo-6-(1,3,5-trimethyl-1H-pyrazol-4-yl)-3,4-dihydropyrazino[1,2-a]indol-2(1H)-yl)benzofuran-2-carboxylic acid] were, in that order, < 1 nM and 4000 nM.
Regarding `Cc1cc(N2CCCn3c(c(CCCOc4cc(C)c(Cl)c(C)c4)c4ccc(Cl)c(-c5c(C)ncnc5C)c43)C2=O)c2c(c1)cc(C(=O)O)n2C` [Example 399, 7-(8-Chloro-11-(3-(4-chloro-3,5-dimethylphenoxy)propyl)-7-(4,6-dimethylpyrimidin-5-yl)-1-oxo-4,5-dihydro-1H-[1,4]diazepino[1,2-a]indol-2(3H)-yl)-1,5-dimethyl-1H-indole-2-carboxylic acid], the Ki on Mcl-1 amounted to 2.4 nM. In test [1] (setting [2]), the GI50 was found to be 210 nM.

These data come from patent US11596639B2, “Substituted indole Mcl-1 inhibitors” (Vanderbilt University, priority 2016, dated 2023).
